Data taken from the NIST ThermoML archive (doi:10.1016/j.fluid.2004.07.015).
Numbers after ± are expanded uncertainties.

Conditions: 101.33 kPa, Liquid

CCCCn1cc[n+](C)c1.F[P-](F)(F)(F)(F)F [1-butyl-3-methylimidazolium hexafluorophosphate]
mass density (289.1 K): 1372.6 ± 3 kg/m3 | mass density (291.1 K): 1370.8 ± 2.9 kg/m3 | mass density (293.1 K): 1369.1 ± 2.9 kg/m3 | mass density (295.1 K): 1367.4 ± 2.9 kg/m3 | mass density (297.05 K): 1365.8 ± 2.9 kg/m3 | mass density (299.1 K): 1364.1 ± 2.9 kg/m3 | mass density (301.05 K): 1362.4 ± 2.9 kg/m3 | mass density (303.15 K): 1360.6 ± 2.9 kg/m3 | mass density (305.1 K): 1359 ± 2.9 kg/m3 | mass density (307.15 K): 1357.3 ± 2.9 kg/m3 | mass density (309.15 K): 1355.6 ± 2.9 kg/m3
